Results reported in US20080139520A1, “Altering cholesterol and fat uptake by novel allosteric inhibitors of pancreatic phospholipase A2” (priority 2006, published 2008).

Assays:
[1] = biological target: T1, PLA2 (Sus scrofa, UniProt P00592); assay: PLA2 catalyzed hydrolysis of mixed micelles of POPC with bile salts; format: biochemical, pig; conditions: 1 mM POPC, 0.7 mole fraction bile salt
T1 construct: made in house
Description: (§1) Aqueous dispersion of phospholipid was sonicated in a bath type sonicator. Virtually transparent suspension was annealed for at least 4 hours at room temperature before use. Reaction progress for the PLA2 catalyzed hydrolysis of sonicated DMPC (1 mM) vesicles was measured by pH-stat titration (Radiometer) with 1 mM 2-aminopropanediol in 4 ml reaction buffer containing 5 mM CaCl2 for DMPC (or 0.5 mM for DMPM), 1 mM NaCl, and 0.1 mM EDTA at pH 8.0 and 24° C. in the nitrogen purged closed atmosphere. Reaction was initiated by adding 0.1 μg enzyme in 1-10 μl solution. The pH stat method was also used for monitoring the rate of hydrolysis of DMPM (0.4 mM) vesicles in the presence of polymyxin [27-29], or of the mixed-micelles of POPC with bile salts in 1:2 ratio [13, 30].

[2] = biological target: T2, PLA2 K10W/W3F (Sus scrofa, UniProt P00592, K32W/W25F); assay: Bile salt binding by Trp emission, K10W/W3F PLA2; set-up: species or system pig; conditions: read-out: KEB
T2 construct: made in house
T2 sequence (P00592 23-146 W25F/K32W): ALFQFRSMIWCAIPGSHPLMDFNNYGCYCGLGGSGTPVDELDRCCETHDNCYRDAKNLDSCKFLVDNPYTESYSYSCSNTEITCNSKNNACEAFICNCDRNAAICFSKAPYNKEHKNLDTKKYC
Description: (§2) Fluorescence emission spectrum or time course of the intensity change from tryptophan or the resonance energy transfer probe TMA-DPH were measured in the ratio mode on SLM-Aminco AB2 in a 1 cm cuvette [31, 32] in 1.6 ml stirred buffer containing 1 or 2 μM PLA2 in 10 mM Tris, 5 mM CaCl2 and 20 mM NaCl at pH 8.0 and 24° C. The slit-widths were 4 nm with excitation at 280.
(§3) As shown in [45], the binding of decylsulfate to the R site is accompanied by a modest increase in the emission intensity from Trp-3. […] As summarized in Table 2, the value of KEB depends on the position of Trp, although Hill coefficient remains 1. […] Note that KEB for the EB complex of ΔPLA2 is about 7-fold larger than that for PLA2.

[3] = biological target: proPLA2 (Sus scrofa, UniProt P00592); assay: Bile salt binding by Trp emission, proPLA2; set-up: species or system pig; conditions: read-out: KEB
Chain of proPLA2 (P00592 16-146 limits assumed): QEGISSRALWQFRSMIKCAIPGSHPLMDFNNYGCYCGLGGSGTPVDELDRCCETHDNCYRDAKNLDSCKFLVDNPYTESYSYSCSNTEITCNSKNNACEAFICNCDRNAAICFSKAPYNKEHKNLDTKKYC
Description: as §2, §3

[4] = biological target: T3, PLA2 M20W/W3F (Sus scrofa, UniProt P00592, M42W/W25F); assay: Bile salt binding by Trp emission, M20W/W3F PLA2; set-up: species or system pig; conditions: read-out: KEB
T3 construct: made in house
T3 sequence (P00592 23-146 W25F/M42W): as the sequence (P00592 23-146 W25F/K32W) above, with W10K, M20W counted along it
Description: as §2, §3

[5] = biological target: T1, PLA2; assay: Isothermal calorimetric titration of PLA2 with bile salt; format: binding, pig; conditions: ITC
Description: ITC titration of PLA2 with <1 mM (below the CMC) bile salt stock solution was carried out on the Microcal calorimeter (model VP-itc) with cell volume of 1.42 ml with stirring at 300 rpm. Successive injections were made every 5 min. Standard software was used for the peak integration. The heat change with the internal calibration associated with the dilution of the titrant in the […] was subtracted from the heat change obtained by the injection of the bile salt in the presence of 8.5 μM PLA2. The net heat change per injection in the presence of PLA2 was integrated to obtain the total heat change as a function of the total added amphiphile concentration.

[6] = biological target: T4, PLA2 A1W/W3F (Sus scrofa, UniProt P00592, A23W/W25F); assay: Bile salt binding by Trp emission, A1W/W3F PLA2; set-up: species or system pig; conditions: read-out: KEB
T4 construct: made in house
T4 sequence (P00592 23-146 A23W/W25F): as the sequence (P00592 23-146 W25F/K32W) above, with A1W, W10K counted along it
Description: as §2, §3

[7] = biological target: T5, PLA2 (3W)(WT) (Sus scrofa, UniProt P00592); assay: Bile salt binding by Trp emission, (3W)(WT) PLA2; set-up: species or system pig; conditions: read-out: KEB
T5 construct: made in house
T5 sequence (P00592 23-146): as the sequence (P00592 23-146 W25F/K32W) above, with F3W, W10K counted along it
Description: as §2, §3

[8] = biological target: PLA2 R6M (Sus scrofa, UniProt P00592, R28M); assay: Bile salt binding by Trp emission, R6M PLA2; set-up: species or system pig; conditions: read-out: KEB
Chain of PLA2 R6M (P00592 23-146 R28M): as the sequence (P00592 23-146 W25F/K32W) above, with F3W, R6M, W10K counted along it
Description: as §2, §3

[9] = biological target: T6, human pancreatic IB PLA2 (Homo sapiens, UniProt P04054); assay: Hydrolysis of DMPC vesicles by human IB PLA2 with added bile salt; format: biochemical; conditions: 1 mM DMPC
T6 construct: gift of Dr. Suren Tatulian (Orlando, Fla.)
T6 sequence (P04054 23-148): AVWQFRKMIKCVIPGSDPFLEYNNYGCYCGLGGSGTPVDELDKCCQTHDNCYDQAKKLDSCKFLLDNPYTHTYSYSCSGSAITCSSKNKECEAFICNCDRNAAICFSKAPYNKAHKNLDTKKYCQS
Description: as §1

[10] = biological target: T7, PLA2 R6W/W3F (Sus scrofa, UniProt P00592, R28W/W25F); assay: Bile salt binding by Trp emission, R6W/W3F PLA2; set-up: species or system pig; conditions: read-out: KEB
T7 construct: made in house
T7 sequence (P00592 23-146 W25F/R28W): as the sequence (P00592 23-146 W25F/K32W) above, with R6W, W10K counted along it
Description: as §2, §3

[11] = biological target: T8, PLA2 K87W/W3F (Sus scrofa, UniProt P00592, K109W/W25F); assay: Bile salt binding by Trp emission, K87W/W3F PLA2; set-up: species or system pig; conditions: read-out: KEB
T8 construct: made in house
T8 sequence (P00592 23-146 W25F/K109W): as the sequence (P00592 23-146 W25F/K32W) above, with W10K, K87W counted along it
Description: as §2, §3

[12] = biological target: T9, PLA2 L19W/W3F (Sus scrofa, UniProt P00592, L41W/W25F); assay: Bile salt binding by Trp emission, L19W/W3F PLA2; set-up: species or system pig; conditions: read-out: KEB
T9 construct: made in house
T9 sequence (P00592 23-146 W25F/L41W): as the sequence (P00592 23-146 W25F/K32W) above, with W10K, L19W counted along it
Description: as §2, §3

[13] = biological target: T10, PLA2 K56W/W3F (Sus scrofa, UniProt P00592, K78W/W25F); assay: Bile salt binding by Trp emission, K56W/W3F PLA2; set-up: species or system pig; conditions: read-out: KEB
T10 construct: made in house
T10 sequence (P00592 23-146 W25F/K78W): as the sequence (P00592 23-146 W25F/K32W) above, with W10K, K56W counted along it
Description: as §2, §3

[14] = biological target: T11, WT (wild type) pig PLA2 (Sus scrofa, UniProt P00592); assay: PLA2 catalyzed hydrolysis of sonicated DMPC vesicles with added bile salt (pH-stat); format: biochemical
T11 construct: made in house
T11 sequence (P00592 23-146): as the sequence (P00592 23-146 W25F/K32W) above, with F3W, W10K counted along it
Description: as §1, with “and 0.1 mM EDTA at pH 8.0 and 24° C. in the nitrogen purged closed” left out
Delay before the onset of the stationary phase of the PLA2 catalyzed reaction progress for the hydrolysis of zwitterionic phospholipids has been extensively characterized. […] The apparent rates in FIG. 3 were obtained from the initial slopes of such reaction progress during which <5% of the total substrate is hydrolyzed.
The CMC of the bile salts used in this study range between 0.8 to 5 mM.

[15] = biological target: PLA2 K63W/W3F (Sus scrofa, UniProt P00592, W25F/); assay: Bile salt binding by Trp emission, K63W/W3F PLA2; set-up: species or system pig; conditions: read-out: KEB
Chain of PLA2 K63W/W3F (P00592 whole entry W25F/F85W, form open): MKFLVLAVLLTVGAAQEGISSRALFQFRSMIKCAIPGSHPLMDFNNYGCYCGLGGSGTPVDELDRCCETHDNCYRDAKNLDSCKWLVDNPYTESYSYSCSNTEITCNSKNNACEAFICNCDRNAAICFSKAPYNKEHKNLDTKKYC
Description: as §2, §3

[16] = test system: Naja venom PLA2; format: biochemical, Naja melanoleuca
Description: as §1

T1 sequence (P00592 23-146): as the sequence (P00592 23-146 W25F/K32W) above, with F3W, W10K counted along it

C[C@H](CCC(=O)NCCS(=O)(=O)O)[C@H]1CC[C@H]2[C@@H]3[C@H](O)C[C@@H]4C[C@H](O)CC[C@]4(C)[C@H]3CC[C@]12C [TCDOC, taurochenodeoxycholate]
initial rate of hydrolysis of POPC in mixed micelles [1]: 15 s⁻¹
Kd [2]: 4 µM
Kd [3]: 27 µM
Kd [4]: 75 µM
S ([5]; 8.5 μM PLA2): 3.5 cal/mole/deg
Hill coefficient ([5]; single hyperbola fit): 1
Kd ([5]; KEB, 8.5 μM PLA2): 9 µM
Kd [6]: 210 µM
Kd [7]: 6 µM
Kd [8]: 150 µM
effect on rate of hydrolysis of DMPC vesicles by human pancreatic IB PLA2 [9]: virtually no rate increase
Kd [10]: 50 µM
Kd [11]: 200 µM
Kd [12]: 3 µM
Kd [13]: 21 µM
concentration at which the rate increase and decrease is complete ([14]; 1 mM DMPC vesicles): < 0.12 mM
peak rate of hydrolysis of DMPC vesicles ([14]; 1 mM DMPC, 24° C., cholate above 0.04 mM): 80 s⁻¹
bile salt concentration at the maximum rate ([14]; 16° C., 1 mM DMPC): 0.013 mM
bile salt concentration at the maximum rate ([14]; 29° C., 1 mM DMPC): 0.13 mM
effect of bile salt on the rate of hydrolysis (monophasic/biphasic) ([14]; DMPC vesicles, pancreatic PLA2): a rate increase and then a rate decrease at higher concentration
Kd [15]: 3 µM
rate lowering effect with Naja venom enzyme [16]: not observed
